Laboratory results as given in ChEMBL document CHEMBL5143596, “The Design and Optimization of Monomeric Multitarget Peptides for the Treatment of Multifactorial Diseases” (J Med Chem, 2022).

Legend:
Mu-type opioid receptor = Mu-type opioid receptor (Homo sapiens, UniProt P35372); assay: Binding affinity at MOR (unknown origin) assessed as inhibition constant
[1] = Metabolic stability in rat plasma assessed as half life; type: ADME, cell-free

Chain of Mu-type opioid receptor (P35372 whole entry): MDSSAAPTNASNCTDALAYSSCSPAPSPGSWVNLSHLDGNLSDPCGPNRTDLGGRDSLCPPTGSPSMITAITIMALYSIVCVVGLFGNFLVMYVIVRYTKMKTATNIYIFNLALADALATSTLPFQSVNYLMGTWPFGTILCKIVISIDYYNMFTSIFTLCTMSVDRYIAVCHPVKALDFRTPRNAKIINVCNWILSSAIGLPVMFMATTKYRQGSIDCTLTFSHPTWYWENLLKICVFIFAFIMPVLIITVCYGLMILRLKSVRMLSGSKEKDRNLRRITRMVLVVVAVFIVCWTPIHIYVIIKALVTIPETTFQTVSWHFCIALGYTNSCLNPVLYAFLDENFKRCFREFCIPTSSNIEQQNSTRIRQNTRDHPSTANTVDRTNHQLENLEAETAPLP

SMILES: Cc1cc(O)cc(C)c1C[C@H](N)C(=O)N[C@H](C)C(=O)NCC(=O)N(C)[C@@H](Cc1ccccc1)C(=O)N1CCC[C@H]1C(=O)N[C@@H](CC(C)C)C(=O)N[C@@H](Cc1c[nH]c2ccccc12)C(=O)NCc1cc(C(F)(F)F)cc(C(F)(F)F)c1
- Ki (Mu-type opioid receptor): 1 nM
- half-life [1]: > 24 h
